# US8173654B2, “Triazolopyridazine compounds” (Janssen Pharmaceutica N.V., priority 2005, dated 2012)
# Key:
# [1] = tested on: S114 tumors; experiment: S114 tumor model; format: in vivo, athymic nude mice; settings: 100 mg/kg p.o. q.d., four consecutive days, five mice
# Method: Female athymic nude mice were inoculated subcutaneously in the left inguinal region of the thigh with 5×10^6 S114 cells in a delivery volume of 0.1 mL. Tumors were allowed to grow to for five days. Mice were dosed orally at 100 mg/kg compound in 20% HPBCD or with vehicle (20% HPBCD, control group). Dosing was continued for 4 consecutive days. On the day of study termination, tumors were immediately excised intact and weighed, with final tumor wet weight (grams) serving as a primary efficacy endpoint.
# Female athymic nude mice (CD-1, nu/nu, 9-10 weeks old) were obtained from Charles River Laboratories (Wilmington, Mass.) and were maintained according to NIH standards. All mice were group housed (5 mice/cage) under clean-room conditions in sterile micro-isolator cages on a 12-hour light/dark cycle in a room maintained at 21-22° C. and 40-50% humidity. […]
# The murine NIH 3T3 derived cell line S114, which has been engineered to over-express both Human Growth Factor (HGF) and the human c-Met receptor, was propagated in DMEM media (Life Technologies, Bethesda, Md.). Immediately prior to injection, cells were washed counted and resuspended in PBS. […]
# Mice were dosed orally at 100 mg/kg compound in 20% HPBCD or with vehicle (20% HPBCD, control group). […] Body weight was measured at the end of the study and a loss of body weight >10% was used as an indication of lack of compound tolerability. […]
# [2] = tested on: U87MG glioblastoma tumors; experiment: U87MG glioblastoma tumor xenograft model (tumor growth inhibition); format: in vivo, athymic nude mice
# Method: The U87MG glioblsatoma cell line (Piedmont Research Center LLC) expresses the c-Met receptor and responds to Human Growth Factor (HGF). This study investigated whether treatment with an inhibitor of c-Met is efficacious against the U87MG glioblastoma tumor xenograft model. This study utilized a tumor growth inhibition (TGI) assay to test per os (p.o.) compound monotherapy in groups of fifteen nude mice. A control group was treated with vehicle, 20% Hydroxypropyl Beta-Cyclodextrin (HPBCD). All treatments began on Day 1 (D1) in mice bearing established subcutaneous (s.c.) U87MG tumors.
# Female athymic nude mice (Harlan) were 10-11 weeks old with a BW range of 18.1-25.0 g on D1 of the study. The animals were fed ad libitum water (reverse osmosis, 1 ppm Cl) and NIH 31 Modified and Irradiated Lab Diet® consisting of 18.0% crude protein, 5.0% crude fat, and 5.0% crude fiber. The mice were housed on irradiated ALPHA-dri® Bed-o-cobs® Laboratory Animal Bedding in static microisolators on a 12-hour light cycle at 21-22° C. (70-72° F.) and 40-60% humidity. All animals were housed in a Laboratory Animal Medicine facility that is fully accredited by the American Association for Assessment and Accreditation of Laboratory Animal Care (AAALAC). All procedures involving animals were conducted in compliance with the NIH Guide for the Care and Use of Laboratory Animals and all protocols were approved by an Internal Animal Care and Use Committee (IACUC).
# Xenografts were initiated from U87MG human glioblastoma tumor fragments maintained by serial transplantation in athymic nude mice. Each test mouse received a subcutaneous U87MG tumor fragment (1 mm^3) implanted in the right flank, and the growth of tumors was monitored as the average size approached 200 mm^3. Twelve days later, on Day 1 of the study, the animals were sorted into 4 groups (n=12-15 mice/group) with individual tumor volumes ranging from 172-352 mm^3 and group mean tumor volumes of 216 mm^3. Tumor volume was calculated using the formula:
# [formula] where w=width and l=length in mm of the tumor. Tumor weight may be estimated with the assumption that 1 mg is equivalent to 1 mm^3 of tumor volume. Drug Treatment
# Dosing solutions of compounds of the present invention were prepared fresh weekly in a vehicle consisting of 20% Hydroxypropyl Beta-Cyclodextrin (HPBCD) in water. In all groups, the dosing volume of 0.2 mL/20-g mouse was scaled to the body weight of each animal. Doses were given to allow for the HCl salt form of the compound.
# TGI was calculated from the difference between the median tumor volumes of vehicle-treated and drug-treated mice, expressed as a percentage of the median tumor volume of the vehicle-treated control group, by the following relation:
# The MTV (n) is defined as the median tumor volume (MTV) for the number of animals, n, remaining in the study on that day.
# Animals were weighed daily for the first five days of the study and then twice weekly. The mice were examined frequently for overt signs of any adverse, drug-related side effects, and clinical signs of toxicity were recorded when observed. Acceptable toxicity is defined as a group mean body-weight (BW) loss of less than 20% during the study, and not more than one treatment-related (TR) death among ten animals. A death is classified as TR if it is attributable to treatment side effects as evidenced by clinical signs and/or necropsy, or due to unknown causes during the dosing period or within 10 days of the last dose. A death is classified as non treatment-related (NTR) if there is no evidence that the death was related to drug side effects. A death is classified as non treatment-related unknown (NTRu) if the cause of death is unknown.
# The Mann-Whitney U-test, for analysis of medians, was used to determine the statistical significance of the difference between the MTVs. Prism 3.03 (GraphPad) for Windows was used for the statistical analyses and graphic presentations. […]
compound,measurement,setting,value
"Cn1cc(-c2ccc3nnc(C(F)(F)c4ccc5ncccc5c4)n3n2)cn1 [Example 61, 6-{Difluoro-[6-(1-methyl-1H-pyrazol-4-yl)-[1,2,4]triazolo[4,3-b]pyridazin-3-yl]-methyl}-quinoline]","mice with tumors regressed to non-palpable, non-detectable tumors by the end of the study",[1],three of the five mice
same,regression of S114 tumors,[1],regressed in all five mice
same,decrease of mean tumor volume,"[2]; 25 mg/kg p.o., q.d. on day 1 and b.i.d. to day 12, Day 12, p<0.01",94%
same,decrease of mean tumor volume,"[2]; 50 mg/kg p.o., b.i.d. for 7 days, 24-hr pause, then q.d. to day 12, Day 12, p<0.01",96%
same,decrease of mean tumor volume,"[2]; 75 mg/kg p.o., b.i.d. for 7 days, 24-hr pause, then q.d. to day 12, Day 12, p<0.01",97%
same,tumor regression,"[2]; 25, 50 and 75 mg/kg p.o., 12 days",Tumor regression was also observed with all three doses
same,tumor growth inhibition of U87MG tumors,"[2]; 25, 50 and 75 mg/kg p.o., 12 days, p<0.01","statistically significant, tumor growth inhibition"
